Consider five molecules from publication PMC5216877, “Exploring conformational equilibria of a heterodimeric ABC transporter” (eLife, 2017).

In assay [1] the target is T1, TM287/288 (Thermotoga maritima, UniProt Q9WYC3+Q9WYC4, C28S/C496S/C519S/C558S/C73S). Briefly: Inhibition of ATPase activity of TM287/288 by vanadate and nucleotides. It counts as biochemical. The following applies: for IC50: 500 µM ATP; for Ki: calculated from IC50 and Km. The protocol:
Nucleotide binding and hydrolysis follow a complex mechanism in heterodimeric ABC exporters, due to the existence of a degenerate and a consensus site in the NBDs. […] Using the relation IC50=Ki(1+[S]/Km), Ki values for the respective nucleotides were determined (Table 2). […] It is well established that ATPγS is slowly hydrolyzed by ATPases, as for example the F1Fo-ATPase ([Turina and Capaldi, 1994]). […] It is reasonable to assume that TM287/288 is as well capable of slow ATPγS hydrolysis. In addition, we tested whether TM287/288 hydrolyzes AMP-PNP. In contrast to ATPγS, hydrolysis of AMP-PNP releases Pi, which can be detected by the molybdate/malachite green method.
(§1) in which f corresponds to the ATPase activity at the respective inhibitor concentration divided by the ATPase activity in the absence of inhibitor normalized to 100%, y0 corresponds to the residual activity at infinite inhibitor concentration, a corresponds to the maximal degree of inhibition (a+y0=100%) and x corresponds to the inhibitor concentration.
(§2) Ki values were calculated according to the formula Ki=IC50/(1+[S]/Km)
(§3) IC50 and Km values were obtained from data fitting as outlined above.
(§4) Standard errors for the Ki values were calculated by error propagation: σKi = (Km/Km+[S])^2 σIC502+ ([S]IC50/(Km+[S])^2)^2 σKm2
(§5) in which the σIC50 and σKm are standard errors obtained from data fitting in SigmaPlot and σKi is the standard error for Ki .

Assay [2] deals with TM287/288. Briefly: DEER two-Gaussian fit of IF/OF populations, wildtype TM287/288. The following applies: estimated errors 10%. Further details: species or system Thermotoga maritima. The protocol: All nucleotides and nucleotide analogs used in this study were added at saturating conditions well above their Ki values (Table 2). […] Therefore, the IF/OF fractions detected in the sample reflect the average life time that the nucleotide-bound transporter spends in either conformation. To rank the nucleotides in terms of their ability to support the transition to the OF conformation, we used three representative pairs in the wildtype transporter and the E-to-Q mutant: one in the extracellular region (50^TM287/271^TM287), one in the intracellular region (131^TM288/248^TM288) of the TMDs, and one in the NBDs (460^TM287/363^TM288) for which the distance peaks corresponding to the two states were distinguishable. A two-Gaussian fit of the DEER traces was performed to obtain the area of the corresponding IF and OF distance peaks (Figure 5—source data 1). The rank of nucleotides with respect to increasing fractions of the OF populations (Figure 5A) was: ADP-Mg ≈ AMP-PNP-Mg < ATP-EDTA < ATPγS-Mg < ATP-Mg < ATP-Vi-Mg. The order is similar for the wildtype and E-to-Q mutant transporter. However, the OF state is in general more populated in the E-to-Q mutant, which is best explained by an alteration of the energy profile caused by the mutation. This notion is best appreciated for ATP-EDTA and ATP-Mg, which could trigger an almost complete switch in the molecular ensemble of the E-to-Q mutant (Figure 5B).
The labeling efficiency of the double cysteine mutants of the transporters solubilized in detergent was measured at 25°C using an X-band Miniscope 400 EPR spectrometer (Magnettech by Freiberg Instrument). Samples were loaded into glass capillaries with the inner diameter of 0.9 mm and spectra were measured with 14 mT field sweep, 0.15 mT modulation amplitude, 2.5 mW microwave power. The calculated spin labeling efficiencies of the twelve mutants ranged between 70–90% (the second integral of the EPR spectra was calculated with the software available at spintoolbox.com). The high degree of labeling is correlated with the 0.3–0.4 modulation depths of all Q-band DEER traces presented. For DEER measurements, 10% v/v D8- glycerol was added prior to snap freezing. The range of final protein concentrations was 12 to 41 µM. 40 µL of sample were loaded in quartz tubes with 3 mm outer diameter. If not stated differently, samples were incubated at 25°C for 10 min (TM287/288 and MsbA) or 15 min (BmrCD) and snap frozen in liquid nitrogen. To study the effect of high physiological temperatures on the frozen dynamics of the transporter, samples were loaded in the quartz tubes, incubated for 3 min at 80°C on a heat block and snap frozen in a mixture of isopentane and liquid nitrogen to minimize the freezing time. […] The nucleotide analogs AMP-PNP-Mg and ATPγS-Mg (2.5 mM) were also prepared in the presence of 2.5 mM MgCl2. In case of ADP-Mg, 2.5 mM ADP and 2.5 mM MgCl2 were added.
Double electron-electron resonance (DEER) measurements were performed at 50 K on a Bruker ELEXSYS E580Q-AWG (arbitrary wave generator) dedicated pulse Q-band spectrometer equipped with a 150 W TWT amplifier. A 4-pulse DEER sequence with rectangular, non-selective observer and pump pulses of 14 or 16 ns length (depending on the available B1 at the sample) with 100 MHz frequency separation was used ([Polyhach et al., 2012]). Due to the coherent nature of the AWG generated pulses, a four-step phase cycling (0 – π/2 - π – 3/2π) of the pump π pulse was performed to remove unwanted effects of running echoes from the DEER trace. The evaluation of the DEER data was performed using DeerAnalysis2015 ([Jeschke et al., 2006]). The background of the primary DEER traces was corrected using stretched exponential functions with homogeneous dimensions of 1.5 to 3 for different samples. A model-free Tikhonov regularization was used to extract distance distributions from the background corrected form factors. […]

Assay [3] deals with T2, BmrCD (Bacillus subtilis, UniProt O07549+O07550, C154A/C256A/C351A).
T2 construct: made in house; host or cells: E. coli MC1061
T2 sequence (O07550 whole entry): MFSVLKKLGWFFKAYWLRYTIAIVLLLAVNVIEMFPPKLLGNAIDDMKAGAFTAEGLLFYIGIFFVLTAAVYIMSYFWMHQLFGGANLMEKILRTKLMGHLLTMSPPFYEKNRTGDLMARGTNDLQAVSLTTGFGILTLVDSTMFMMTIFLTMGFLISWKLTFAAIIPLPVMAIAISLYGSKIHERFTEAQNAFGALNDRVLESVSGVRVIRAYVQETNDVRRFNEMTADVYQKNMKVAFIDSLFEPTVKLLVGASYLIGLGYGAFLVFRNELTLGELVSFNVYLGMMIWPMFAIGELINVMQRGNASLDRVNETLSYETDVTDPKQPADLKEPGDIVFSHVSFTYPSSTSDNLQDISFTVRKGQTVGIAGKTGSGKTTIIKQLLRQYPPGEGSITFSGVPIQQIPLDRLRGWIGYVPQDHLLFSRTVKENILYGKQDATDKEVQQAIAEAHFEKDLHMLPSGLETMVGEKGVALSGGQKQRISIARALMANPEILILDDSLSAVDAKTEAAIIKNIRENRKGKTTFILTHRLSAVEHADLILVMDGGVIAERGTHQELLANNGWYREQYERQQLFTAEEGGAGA
T2 sequence (O07549 whole entry C154A/C256A/C351A): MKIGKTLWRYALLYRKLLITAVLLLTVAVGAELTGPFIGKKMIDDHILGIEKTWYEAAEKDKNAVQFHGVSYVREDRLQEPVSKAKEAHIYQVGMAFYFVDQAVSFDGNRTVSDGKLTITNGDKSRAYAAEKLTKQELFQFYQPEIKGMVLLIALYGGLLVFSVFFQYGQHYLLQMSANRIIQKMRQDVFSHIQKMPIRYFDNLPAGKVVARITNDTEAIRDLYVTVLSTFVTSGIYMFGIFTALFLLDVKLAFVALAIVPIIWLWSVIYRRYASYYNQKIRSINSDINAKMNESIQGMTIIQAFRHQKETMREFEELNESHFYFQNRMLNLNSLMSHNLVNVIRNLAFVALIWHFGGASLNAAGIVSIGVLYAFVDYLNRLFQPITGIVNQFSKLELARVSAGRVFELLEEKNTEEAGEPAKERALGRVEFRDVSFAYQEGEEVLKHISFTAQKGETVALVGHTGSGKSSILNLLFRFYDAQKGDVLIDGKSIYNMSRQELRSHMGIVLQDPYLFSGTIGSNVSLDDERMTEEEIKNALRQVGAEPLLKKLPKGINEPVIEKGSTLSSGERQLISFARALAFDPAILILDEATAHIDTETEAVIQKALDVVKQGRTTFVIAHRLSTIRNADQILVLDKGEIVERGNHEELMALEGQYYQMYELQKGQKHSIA
Nature of the assay: Inhibition of ATPase activity of BmrCD by nucleotide analogs. It counts as biochemical. The protocol:
as §1, §2, §3, §4, §5

For assay [4], the system named is ABCB1. Set-up: method as in Siarheyeva et al., 2010. The following applies: ref Siarheyeva et al., 2010; cited from earlier work.
The target of assay [5] is T1, TM287/288. Briefly: ATPase activity of detergent-purified wildtype TM287/288 (molybdate/malachite green phosphate detection). It is filed as biochemical.
For assay [6], the system named is TM287/288. Briefly: Hoechst 33342 stimulated ATPase activity of TM287/288 reconstituted into proteoliposomes. It counts as biochemical, Thermotoga maritima. The conditions noted are these: 50, 100 and 150 µM Hoechst 33342, 50°C, wildtype and spin-labeled mutants, maximal at 50 or 100 µM, bell-shaped. The protocol: To carry out DEER measurements in a lipidic environment (pair 131^TM288/248^TM288) as well as for the investigation of drug-stimulated ATPase activity of all pairs, spin-labeled TM287/288 was reconstituted into proteoliposomes consisting of E. coli polar lipids and egg phosphatidylcholine mixed at a ratio of 3:1 in 50 mM K-HEPES pH 7.0 as described elsewhere ([Hürlimann et al., 2016]; [Geertsma et al., 2008]). […] Reconstituted TM287/288_E517Q^TM288 was used for background subtraction.

Setting [7] is: TM287/288, 50°C, read-out: IC50.
The mark [8] stands for this setting: spin-labeled pair 50^TM287-271^TM287 WT.
[9] abbreviates: spin-labeled pair 131^TM288-248^TM288 WT.
Where [10] appears, read: spin-labeled pair 460^TM287-363^TM288 WT.
The mark [11] stands for this setting: wildtype TM287/288, ATP-Mg + 2.5 mM EDTA, 50°C, detergent.
Where [12] appears, read: wildtype TM287/288, ATP-Mg + 1 mM vanadate, 50°C, detergent.

Each structure is given as a SMILES string. Where two headings read alike, the source gives them in different places.

As a reminder, the IC50 is the concentration at which inhibition is half-maximal. In general, Ki refers to the dissociation constant of the complex between target and ligand, obtained from inhibition or displacement. With `Nc1ncnc2c1ncn2[C@@H]1O[C@H](COP(=O)(O)OP(=O)(O)O)[C@@H](O)[C@H]1O` [ADP], the half-inhibitory concentration (IC50) is 505 ± 21 µM in assay [1] (TM287/288, 25°C, read-out: IC50) and 681 ± 160 µM in assay [1] (setting [7]). Moreover, the Ki in assay [1] (TM287/288, 25°C, read-out: Ki) is 3.28 ± 0.44 µM; in assay [1] (TM287/288, 50°C, read-out: Ki) it was 10.4 ± 2.9 µM. The IF frac in assay [2] (setting [8]) was 90.1%; in assay [2] (setting [9]), 100%; in assay [2] (setting [10]), 82%. Besides, the OF frac in assay [2] (setting [8]) is given as 9.9%; in assay [2] (setting [9]) it was 0%; in assay [2] (setting [10]), 18%.

With `Nc1ncnc2c1ncn2[C@@H]1O[C@H](CO[P@](=O)(O)O[P@](=O)(O)O[P@@](=O)(O)S)[C@@H](O)[C@H]1O` [ATPγS], the half-inhibitory concentration (IC50) in assay [1] (IC50, TM287/288, 25°C) is 31.4 ± 2.8 µM; in assay [1] (IC50, TM287/288, 50°C), 2.86 ± 0.08 µM; in assay [3], 221 ± 24 µM. Also, the Ki was 0.204 ± 0.032 µM in assay [1] (Ki, TM287/288, 25°C); 0.0439 ± 0.0062 µM in assay [1] (Ki, TM287/288, 50°C); 26.7 ± 3.3 µM in assay [3]. In addition, the IF frac in assay [2] (setting [8]) is on record as 45.2%; in assay [2] (setting [9]), 72.9%; in assay [2] (setting [10]), 63.7%. Besides, the figures for the OF frac in assay [2] (setting [8]), in assay [2] (setting [9]) and in assay [2] (setting [10]) were 54.8%, 27.1% and 36.3%, respectively. The “rate of hydrolysis of ATPγS relative to that determined for ATP” value in assay [4] is 0.4%.

With `O=C(O)CN(CCN(CC(=O)O)CC(=O)O)CC(=O)O` [EDTA], in assay [5] (2.5 mM EDTA added to chelate Mg2+, wildtype TM287/288), the “ATPase activity in the presence of EDTA” value is listed as “did not observe any detectable ATPase activity”. Moreover, in assay [5] (setting [11]), the ATPase activity is given as under 0.1 nmol Pi/min/mg protein; the “ATPase activity, % of wildtype” value is on record as under 0.005%; the Turnover per transporter is under 0.01 min⁻¹.

With `CCOc1ccc(-c2nc3ccc(-c4nc5ccc(N6CCN(C)CC6)cc5[nH]4)cc3[nH]2)cc1` [Hoechst 33342], in assay [6], the “stimulation of ATPase activity” value is “robust ATPase stimulation”.

With `[Na+].[Na+].[Na+].[O]=[V]([O-])([O-])[O-]` [Vanadate, sodium orthovanadate], the “residual ATPase activity” value in assay [1] (1 mM vanadate, 50°C, TM287/288) is 8%. Besides, the IC50 in assay [1] (setting [7]) was 4.9 ± 0.29 µM. In assay [1] (TM287/288, 50°C, read-out: Ki), the Ki was 0.0751 ± 0.0114 µM. In assay [1] (setting [12]), the ATPase activity is recorded as 165 ± 20 nmol Pi/min/mg protein; the “ATPase activity, % of wildtype” value stood at 7.71%; the Turnover per transporter came to 21.9 min⁻¹. Besides, the “turnover rate, ATP hydrolysis inhibited by vanadate” value in assay [1] (wildtype TM287/288, vanadate, 50°C) came out at 22 ATP min^−1.
